{
  "source": "patent US20210127703A1",
  "about": "“FOOD PRODUCT USING AN IMPROVED SUGAR” (priority 2019, published 2021)",
  "origin": "cited, not measured here",
  "key": {"[1]": {"conditions": "in vivo"}, "[2]": {"conditions": "transdermal; higher than for Δ8-THC"}, "[3]": {"test_system": "liver microsomal drug-metabolizing enzymes", "conditions": "in vitro; inhibiting hexobarbital metabolism in humans"}, "[4]": {"conditions": "ingestion of 20 mg of THC in a chocolate cookie"}, "[5]": {"conditions": "after application of a dermal patch"}},
  "data": [
    {"smiles": "C=C(C)[C@@H]1CCC(C)=C[C@H]1c1c(O)cc(CCCCC)cc1O", "note": "[CBD, cannabidiol]", "values": [
      {"measurement": "excretion in the feces", "setting": "[1]", "value": "a large proportion of the dose is excreted unchanged in the feces"},
      {"measurement": "permeability relative to Δ8-THC", "setting": "[2]", "value": 10, "unit": "fold"},
      {"measurement": "inhibition of liver microsomal drug-metabolizing enzymes", "setting": "[3]", "value": "in vitro inhibitor of liver microsomal drug-metabolizing enzymes"},
      {"measurement": "effect of CBD on pharmacokinetics of THC", "setting": "CYP 2C; Hunt et al., except for a slight slowing of metabolism of 11-OH-THC to THC-COOH", "value": "not affected"},
      {"measurement": "inhibition of hydroxylation of THC to 11-OH-THC catalyzed by CYP 2C", "setting": "CYP 2C; oral THC alone compared to a THC and CBD preparation", "value": "only partially inhibited"}
    ]},
    {"smiles": "CCCCCc1cc(O)c2c(c1)OC(C)(C)c1ccc(C)cc1-2", "note": "[CBN]", "values": [
      {"measurement": "permeability relative to Δ8-THC", "setting": "[2]", "value": 10, "unit": "fold"}
    ]},
    {"smiles": "CCCCCc1cc(O)c2c(c1)OC(C)(C)[C@@H]1CCC(C)=C[C@@H]21", "note": "[THC]", "values": [
      {"measurement": "time of peak THC concentration following ingestion", "setting": "[4]", "value": "1 to 5", "unit": "h"}
    ]},
    {"smiles": "CCCCCc1cc(O)c2c(c1)OC(C)(C)[C@@H]1CC=C(C)C[C@@H]21", "note": "[Δ8-THC]", "values": [
      {"measurement": "duration steady-state plasma concentration maintained", "setting": "[5]", "value": "at least 48 h"},
      {"measurement": "mean steady-state plasma concentration", "setting": "[5]", "value": 4.4, "unit": "ng/mL"},
      {"measurement": "time to steady-state plasma concentration", "setting": "[5]", "value": "≤ 1.4", "unit": "h"}
    ]}
  ]
}
